In paper doi:10.1101/2023.10.24.563163v2, “Targeting cancer with small molecule pan-KRAS degraders” (biorxiv, 2024):

Experiments:
[1] = system: SW620; experiment: cells; parameters: Inhibition of cell proliferation, 5 days; conditions: Homo sapiens, SW-620, 120 h; read-out: IC50 Proliferation SW620
Text: (§1) Next, we set out to test the ability of a single pan-KRAS degrading molecule, compound 4, to selectively suppress oncogenic signaling and proliferation in cancer cell lines driven by diverse KRAS mutants. To this end, we first confirmed degradation of KRAS by compound 4 in KRAS-dependent (GP2d, SW620 and NCI-H358 expressing KRAS^G12D, - G12V or -G12C, respectively) as well as in KRAS independent (A-375, HEK293) cell lines (Fig. 3A, fig. S4A). […] Both inhibition and degradation repressed the established markers of MAPK signaling pERK (fig. S4B-D) and DUSP6 (Fig. 3B, fig. S4E) in KRAS dependent cell lines. […] Neither degradation nor inhibition had appreciable antiproliferative effects in the KRAS independent cell lines A-375 and HEK293 (Fig. 3C, fig. S4F). […] Pan-KRAS degradation impacts MAPK signaling and cancer cell proliferation.

[2] = system: GP2d; experiment: cells; parameters: Inhibition of cell proliferation, 5 days; conditions: 120 h, read-out: IC50 Proliferation GP2d
Text: as §1

[3] = biological target: T1, KRAS^G12D (Homo sapiens, UniProt P01116, G12D); experiment: cell-based; parameters: endogenous; KRAS degradation by capillary electrophoresis immunodetection; conditions: GP5d; read-out: Dmax 24 h GP5d [%]
T1 sequence (P01116 whole entry G12D): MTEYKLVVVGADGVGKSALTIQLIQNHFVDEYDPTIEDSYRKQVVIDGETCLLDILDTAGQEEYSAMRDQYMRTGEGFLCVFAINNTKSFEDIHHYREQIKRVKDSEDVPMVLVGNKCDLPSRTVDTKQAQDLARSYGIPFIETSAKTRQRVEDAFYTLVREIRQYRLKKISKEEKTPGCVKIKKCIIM
Experimental: (§2) Protein Detection by Capillary Electrophoresis Cells (50 000) were seeded the day before treatment into 96-well clear-flat bottom plates and incubated overnight (37 °C, humidified tissue culture incubator, 5% CO2). Compounds were added from DMSO stock solution using a digital dispenser and cells are incubated at 37 °C as specified (24 hours for KRAS degradation, 6 hours for determination of pERK levels). At the end of the incubation, medium was removed, cells washed with ice cold PBS, PBS removed and 50 µL lysis buffer (Meso Scale Discovery #R60TX-2) supplemented with 1:100 protease inhibitor solution, 1:100 phosphatase inhibitor I, 1:100 phosphatase inhibitor II (Meso Scale Discovery #R70AA-1), 0.5 µL/mL Benzonase (Novagen #70664-3) and 10 mM dithiothreitol added to each well. Plates with lysis buffer were immediately transferred to -80 °C freezer for at least 2 hours and then thawed on ice. Lysates were transferred to a 96 well V-bottom plate and insoluble debris was pelleted by centrifugation for 20 min. at 4 000 rpm. 40 µL of the supernatant were transferred to a fresh Eppendorf PCR plate. Analysis of protein levels was conducted using the Wes System, ProteinSimple (https://www.bio-techne.com/) as specified by the manufacturer. Briefly, Wes Master Mix (12-230 kDa WES Separation Module, 8 × 25 capillary cartridges, ProteinSimple #SM-W004) and molecular weight markers were prepared as specified in the manufacturer’s recommendations. To detect primary antibodies, anti-rabbit (Protein Simple #DM-001) or anti-mouse (Protein Simple #DM-002) detection modules were used. 7.2 µL lysate + 1.8 µL master mix were combined and heated to 95 °C for 5 min.

[4] = biological target: T1, KRAS^G12D; parameters: endogenous; KRAS degradation by capillary electrophoresis immunodetection; conditions: read-out: DC50 24 h GP2d
[5] = system: HEK293; experiment: cells; parameters: pERK levels by capillary electrophoresis; conditions: Homo sapiens, HEK293, 6 h
Experimental: as §2, with “5 min. Th” for “5 min.”

SMILES | IC50 [1] | Dmax [3] | DC50 [4] | IC50 [2] | IC50 [5]
Cc1ncsc1-c1ccc(CNC(=O)[C@@H]2C[C@@H](O)CN2C(=O)[C@@H](NC(=O)CCCCCN2CCCN(c3nccc(-c4noc([C@@]5(C)CCCc6sc(N)c(C#N)c65)n4)n3)[C@@H](C)C2)C(C)(C)C)cc1 [compound 3] | 232 nM | 99% | 76.3 nM | 374 nM | > 1000 nM
Cc1ncsc1-c1ccc([C@H](CO)NC(=O)[C@@H]2C[C@@H](O)CN2C(=O)[C@H](C(C)C)n2cc(OCCCCN3CCCN(c4nccc(-c5noc([C@@]6(C)CCCc7sc(N)c(C#N)c76)n5)n4)[C@@H](C)C3)nn2)cc1 [compound 7, ACBI3] | – | 99% | 3.9 nM | – | –
Cc1ncsc1-c1ccc(CNC(=O)[C@@H]2C[C@@H](O)CN2C(=O)[C@@H](NC(=O)COCCCN2CCCN(c3nccc(-c4noc([C@@]5(C)CCCc6sc(N)c(C#N)c65)n4)n3)[C@@H](C)C2)C(C)(C)C)cc1 [compound 2] | – | 100% | – | – | –

Second part, led by results:

IC50 [1] | Dmax [3] | DC50 [4] | SMILES | IC50 [2] | IC50 [5]
993 nM | – | – | Cc1ncsc1-c1ccc(CNC(=O)C2CC(O)CN2C(=O)C(c2cc(OCCCCN3CCCN(c4nccc(-c5noc(C6(C)CCCc7sc(N)c(C#N)c76)n5)n4)C(C)C3)no2)C(C)C)cc1 (stereo not shown) [compound 5] | 1740 nM | > 1000 nM
11 nM | 100% | 3.6 nM | Cc1ncsc1-c1ccc(CNC(=O)[C@@H]2C[C@@H](O)CN2C(=O)[C@@H](c2cc(OCCCCN3CCCN(c4nccc(-c5noc([C@@]6(C)CCCc7sc(N)c(C#N)c76)n5)n4)[C@@H](C)C3)no2)C(C)C)cc1 [compound 4] | 8.3 nM | > 1000 nM
